“Also recorded” adds a separate entry of the source.

For experiment [1], the system named is T cells (human PBMCs co-cultured with SMARCA4 deleted NCI-H1299 cells). The experiment in a line: Flow cytometry of T cell activation markers in co-culture of NCI-H1299 cells and human PBMCs. In kind it is cell-based. The following applies: Formula (I) combined with Pembrolizumab, FIG. 1A. From the text: Human peripheral blood mononuclear cells (PBMCs) were co-cultured with NCI-H1299 cells (SMARCA4 deleted NSCLC) with Pembrolizumab and/or Formula (I). The cell samples from co-culture were stained for CD3 (T cell marker), CD8 (T cell marker), and CD25 (T cell activation marker) and analyzed by flow cytometry to determine percentages of cells with marker positive populations.
(§1) H1299 (CRL-5803) and H1975 (CRL-5908) were purchased from the American […]. Human Mononuclear Cells (PBMC) (HUMANPBMC-0001989) were purchased from BioIVT. NCI-H1299, NCI-H1975 and all CT26 cells were cultured in RPMI-1640 (ATCC, 30-2001) supplemented with 10% FBS (Gibco, 26140-079) and 1× penicillin-streptomycin (Thermofisher, 15140122). Human Peripheral Bloogd Mononuclear Cells (PBMCs) were cultured in RPMI-1640, 20% FBS, 100U/ml Human Recombinant IL-2 (Gibco, PHC0027) and 1× penicillin-streptomycin. All cells were maintained at 37° C. in 5% CO2 in a humidified incubator.
Samples from co-culture were collected in Eppendorf tubes and 500 ul of PBS was added. The samples were centrifuged (300 g, 5 minutes) to wash. Supernatant was removed and the pellet was resuspended in 200 ul FACS buffer. Samples were placed on ice for 15 minutes to block. After blocking, the samples were centrifuged (300 g, 5 minutes). […]
(In flow cytometry, cells or beads pass a laser one at a time.)

For experiment [2], the system named is IFN-gamma, IL-2 and Granzyme B in co-culture of NCI-H1299 cells and human PBMCs. Description: Cytokine analysis (MSD U-PLEX) of co-culture supernatant. As to conditions: Formula (I) combined with Pembrolizumab; conditioned media; FIG. 1B. In kind it is cell-based. The procedure:
Supernatant from the co-culture were plated into a 96-well plate and cytokines were analyzed using the MSD U-PLEX Immuno-Oncology Group 1 (Human) kit (MesoScale Discovery, Custom-made kit). Expressions of IFN-gamma, IL-2 and Granzyme B are shown.
as §1
Supernatant from the co-culture were plated into a 96-well plate and cytokines were analyzed using the MSD U-PLEX Immuno-Oncology Group 1 (Human) kit (MesoScale Discovery, Custom-made kit).

Experiment [3] deals with SMARCA4 deleted A549 cells. Description: Incucyte 3D tumor spheroid growth, A549 cells with HLA-matched T cells. In kind it is cell-based, human. On the procedure: Green fluorescence protein (GFP) positive A549 cells were cultured with or without HLA-matched T cells and treated with Formula (I) in the spheroid culture system. Representative figures of the 3D cancer cell spheroids were shown.
The data were generated with SMARCA4 deleted A549 cells.
(§2) GFP-tagged tumor cells were seeded in 96 well Ultra-Low Adherence (ULA) plates (Corning, 7007) (2000 cells/well) and centrifuged briefly (300 g, 30 seconds) to induce cell aggregation. The cells were incubated at 37° C. overnight to allow complete aggregation into spheroids. Following the addition of immune cells with treatment of Pembrolizumab (MedChemExpress, HY-P9902) (100 ug/ml) and/or Formula (I) (100 nM). Three-dimensional tumor spheroid growth was monitored using Sartorius' Incucyte® SX1 Live-Cell Analysis.

Experiment [4] deals with SMARCA4 deleted NCI-H1299 cells. Description: Incucyte 3D tumor spheroid growth, NCI-H1299 cells with human PBMCs. In kind it is cell-based. The following applies: Formula (I) 100 nM with pembrolizumab 100 ug/ml; FIG. 2C. On the procedure:
(§3) The cells were treated with or without Formula (I) and/or pembrolizumab. The data were generated with SMARCA4 deleted NCI-H1299 and SMARCA4 WT NCI-H1975 cells.
as §2
(§4) H1299 and H1975 cells were seeded (500,000 cells/well) in 6 well Tissue Culture Treated plates (Corning 3516) and allowed to aggregate into tumor spheroids for 1-2 hours. Tumor spheroids were treated with 600 ul of Incucyte® Cytolight Lentivirus (Sartorius, 4481) for a MOI of 3 and 8 ug/ml Polybrene Transfection Reagent (Sigma-Aldrich, TR-1003). The cells were incubated at 37° C. overnight. Following incubation, media was removed and replaced with fresh media. GFP expression was monitored using Sartorius' Incucyte® SX1 Live-Cell Analysis System (9600-0031).

Experiment [5] concerns SMARCA4 WT NCI-H1975 cells. Description: Incucyte 3D tumor spheroid growth, NCI-H1975 cells with human PBMCs. In kind it is cell-based. As to conditions: Formula (I) 100 nM with pembrolizumab 100 ug/ml; FIG. 2C. On the procedure:
as §3, §2, §4

As to `Cc1ncsc1-c1ccc([C@H](C)NC(=O)[C@@H]2C[C@@H](O)CN2C(=O)[C@@H](c2cc(O[C@@H](C)CN3CC[C@@H](N4CCN5c6cc(-c7ccccc7O)nnc6NC[C@H]5C4)C3)no2)C(C)C)cc1` [Formula (I)], in experiment [1], the “activated (CD25+) CD3+ T cells” value is reported as “increased” and the “activated (CD25+) CD8+ T cells” value is “increased”. In experiment [2], the “Gramzyme B level in co-culture supernatant” value is recorded as “higher levels”, the “IFN-g level in co-culture supernatant” value was “higher levels” and the “IL-2 level in co-culture supernatant” value is recorded as “higher levels”. In experiment [3] (Formula (I) 100 nM in the presence of T cells, quantitated GFP positive cells, FIG. 2A/2B), the “T-cell mediated A549 killing” value is “significantly increased; also recorded: promoted”. Besides, in experiment [3] (Formula (I) 100 nM with HLA-matched T cells, FIG. 2A), the “growth of A549 cancer cells (GFP positive) in 3D spheroid culture” value is “inhibited growth”. In experiment [4], the “combination effect on NCI-H1299 spheroids cultured with PBMCs, compared to single agent treated groups” value is “showed more”. For the same compound, the “combination effect on NCI-H1975 spheroids cultured with PBMCs” value in experiment [5] is reported as “the combination effect was not seen”.

The record behind these values is patent US20250114354A1, “COMBINATION TREATMENT REGIMENS - SMARCA2 DEGRADER WITH PD-1 INHIBITORS” (PRELUDE THERAPEUTICS INCORPORATED, priority 2023, published 2025).
